Data as given in paper PMC11711049 (Cancer Science, 2024).

Test: Plasma pharmacokinetics
Format: in vivo, human
Details: for AUC / Cmax / Tmax: human, plasma, oral, 140 mg, Steady state (cycle 1, day 8), 140 mg once daily; for AUC: AUC0–tau; for AUC / Cmax: mean ± SD; for Cmax: C max; for Tmax: t max, median (range)

CNC(=O)n1ccc2cc(Oc3ccnc(NC(=O)c4ccc(C5CCN(CCO)CC5)cc4)c3)c(OCCOC)cc21 [Tasurgratinib]
time to C max, median values (after the first dose and at a steady state, each tumor type): 3 to 4 h | AUC (Cholangiocarcinoma N = 6): 1110 ± 660 ng·h/mL | AUC (Gastric cancer N = 10): 4270 ± 3730 ng·h/mL | AUC (Total N = 16): 3080 ± 3320 ng·h/mL | Cmax (Cholangiocarcinoma N = 6): 95.1 ± 66.2 ng/mL | Cmax (Gastric cancer N = 10): 294 ± 186 ng/mL | Cmax (Total N = 16): 219 ± 179 ng/mL | Tmax (Cholangiocarcinoma N = 6): 3.95 h | Tmax (Gastric cancer N = 10): 3.98 h | Tmax (Total N = 16): 3.97 h
